# Experimental data published in PMC12088962, “Design, synthesis, and biological investigation of new thiazole-based derivatives as multi-targeted inhibitors endowed with antiproliferative, antioxidant, and antibacterial properties” (Frontiers in Chemistry, 2025).
# Key:
# Panc-1 cells = assay: Antiproliferative MTT assay; conditions: Homo sapiens, PANC-1, read-out: Antiproliferative activity IC50 ± SEM, Panc-1
# Source text: (§9) Dose-response assays determined the IC50 values for the novel compounds. We derived the reported data from a minimum of two separate experiments, each consisting of three repetitions per concentration.
# Assay for antiproliferative effect
# A-549 cells = assay: Antiproliferative MTT assay; conditions: Homo sapiens, A549, read-out: Antiproliferative activity IC50 ± SEM, A-549
# Source text: as §9
# Assay for antiproliferative effect
# HT-29 cells = assay: Antiproliferative MTT assay; conditions: Homo sapiens, HT-29, read-out: Antiproliferative activity IC50 ± SEM, HT-29
# Source text: as §9
# Assay for antiproliferative effect
# MCF-7 cells = assay: Antiproliferative MTT assay; conditions: Homo sapiens, MCF7, read-out: Antiproliferative activity IC50 ± SEM, MCF-7
# Source text: as §9
# Assay for antiproliferative effect
# B. subtilis = assay: MIC by twofold serial dilution; assay type: cell-based, Bacillus subtilis (ATCC 6051); conditions: for MIC: Bacillus subtilis, read-out: Minimum inhibitory concentration (MIC), B. subtilis; for MIC / Minimum inhibitory concentration (MIC), B. subtilis: Gram-positive
# Experimental: (§1) The antibacterial efficacy of compounds 11b, 11e, and 12b was evaluated against Gram-positive bacteria (S. aureus and B. subtilis) and Gram-negative bacteria (E. coli and P. aeruginosa). Table 5 presents the MICs (nM) of these compounds against the evaluated bacteria, utilizing ciprofloxacin as the reference drug, determined through a twofold serial dilution approach on a 96-well microtiter plate ([Frejat F. O. et al., 2022]).
# (§2) The antibacterial efficacy of compounds 11b, 11e, and 12b was evaluated against Gram-positive bacteria (S. aureus and B. subtilis) and Gram-negative bacteria (E. coli and P. aeruginosa). The MICs (nM) of the tested compounds against the evaluated bacteria were determined through a twofold serial dilution approach on a 96-well microtiter plate ([Frejat F. O. et al., 2022]). See Appendix A for more details.
# (§3) 4.2. Antimicrobial activity
# (§4) 4.2.1. Organisms and culture conditions […]
# (§5) 4.2.2. Minimum inhibitory concentration assay
# (§6) In 96-well microtiter plates and […] of fresh bacterial culture of a single McFarland unit overnight, a double serial dilution of each compound […] in sterile standard saline were prepared to every single source well. Ciprofloxacin antibiotic (5 mg / mL-1) and normal saline were included as standard reference in each assay. The plates were incubated at 37 0C overnight.
# (§7) As an indicator of bacterial growth, […] of p -iodonitrotetrazolium violet (INT) was added to each well and incubated at 37 0C for 30 min. MIC values are recorded as the lowest concentration […]
# (§8) tetrazolidium salt acts as an electron accepter and is reduced to a red colored formazan product by biological activity organisms. Where bacterial growth was inhibited, the solution in the well remained clear after incubation with INT. […]
# P. aeruginosa = assay: MIC by twofold serial dilution; assay type: cell-based, Pseudomonas aeuroginosa (ATCC 10145); conditions: Gram-negative; for MIC: Pseudomonas aeruginosa, read-out: Minimum inhibitory concentration (MIC), P. aeruginosa
# Experimental: as §1, §2, §3, §4, §5, §6, §7, §8
# S. aureus = assay: MIC by twofold serial dilution; assay type: cell-based, Staphylococcus aureus (ATCC 12600); conditions: Gram-positive; for MIC: Staphylococcus aureus, read-out: Minimum inhibitory concentration (MIC), S. aureus
# Experimental: as §1, §2, §3, §4, §5, §6, §7, §8
# [1] = system: four cancer cell lines (A-549, MCF-7, Panc-1, HT-29); assay: Antiproliferative MTT assay, average over four cancer cell lines; conditions: for GI50: Homo sapiens, read-out: Antiproliferative activity, Average (GI50)
# Source text: as §9
# Assay for antiproliferative effect
# E. coli DNA gyrase = E. coli DNA gyrase (Escherichia coli, UniProt P0AES6); assay: DNA gyrase supercoiling assay; assay type: biochemical; conditions: for remaining activity at 1 µM: read-out: RA (residual activity of the enzyme), E. Coli DNA gyrase
# Experimental: 4.2.3. Determination of Inhibitory Activities on E. coli DNA Gyrase.
# All the final compounds were tested for E. coli DNA gyrase inhibitory activity in a supercoiling assay. Activities were determined on streptavidin -coated 96-well microtiter plates from Thermo scientific Pierce. First, the plates were rehydrated with buffer (20 mM Tris -HCl with pH 7.6, 0.01% […]
# immobilized. After washing off the unbound oligonucleotide, the enzyme test was performed. The reaction volume of 30 μL in buffer (35 mM Tris-HCl with pH 7.5, 4 mM MgCl 2, 24 mM KCl, 2 […]
# 1.5 U of DNA gyrase from E. coli or S. aureus, 0.75 μg of relaxed pNO1 plasmid, and 3 μL solution of the inhibitor in 1 0% DMSO and 0.008% Tween 20. Reaction solutions were incubated at 37 °C […]
# for 30 min. After that, the TF buffer (50 mM NaOAc with pH 5.0, 50 mM NaCl and 50 mM MgCl2) was added to terminate the enzymatic reaction. After additional incubation for 30 min at rt, during which biotin-oligonucleotide-plasmid triplex was formed, the unbound plasmid was washed off using TF buffer and SybrGOLD in T10 buffer (10 mM Tris HCl wit h pH 8.0 and 1 mM EDTA) was added. The fluorescence was measured with a microplate reader (BioTek Synergy H4, excitation: 485 nm, emission: 535 nm). […]
# tested compounds. GraphPad Prism software was used to calculate the IC50 values. The result is given as the average value of three independent measurements. […]
# in vitro = conditions: human, MCF-10A mammary gland epithelial cells (normal cell line)
# E. coli = assay: MIC by twofold serial dilution; assay type: cell-based, Escherichia coli (ATCC 11775); conditions: Gram-negative; for MIC: Escherichia coli, read-out: Minimum inhibitory concentration (MIC), E. coli
# Experimental: as §1, §2, §3, §4, §5, §6, §7, §8
# VEGFR-2 = VEGFR-2 (Homo sapiens, UniProt P35968); assay: VEGFR-2 inhibitory assay
# Experimental: The outcomes are presented as IC50 values.
# (§10) was added to each well followed by incubation of 1h and then washing of the plates using buffer.
# (§11) The enhancement solution was added to each well and the signal was recorded at excitation and
# (§12) The autophosphorylation percentage inhibition by compounds was calculated using the following equation:
# Prepare all the solutions using autoclaved, deionized water and analytical grade reagents.
# and store all the reagents at room temperature (unless indicated otherwise).
# solution, add 5 mL ultra-pure water; 1×Kinase Assay Buffer: add 25 mL HEPES solution (1 M),
# water, adjust pH to 7.5 and constant volume to 500 mL using ultrapure water; 4×Stop solution (40
# mM): Mix 0.8 mL of the foregoing EDTA solution, 1 mL 10×Detection Buffer and 8.2 mL ultra-
# pure water; 1×Detection Buffer: Mix 1 mL 10×Detection Buffer with 9 mL water; 4×VEGFR
# μM) was added to 624 μL 1×Kinase Assay Buffer and mixed; 4×ULight™-labeled JAK1
# (substrate) (200 nM, 25 times diluted): 24 μL ULight™-labeled JAK1 (mother liquor
# concentration 5 μM) was added to 576 μL 1×Kinase Assay Buffer and mixed; 4×ATP Solution
# (40 μM, 250 times diluted): add 3 μL ATP solution (10 mM) to 747 μL 1×Kinase Assay Buffer
# 2×substrate/ATP Mix: 560 μL foregoing 4×ULight™-labeled JAK1 and 560 μL 4×ATP solution
# and mixed (prepared before use). The assays used an ULight-labeled peptide substrate and a
# Europium-W1024-labeled antiphosphotyrosine antibody. The VEGFR-2 was purchased from
# Carna Biosciences, Inc. (New York, USA). The 384-well plates were obtained from PerkinElmer.
# 5 μL 2×VEGFR-2 kinase solution (0.5 nM)
# was added to 384-well plates homogeneous mixing and pre-reaction at room temperature for 30 min. Next, 2.5 μL 4×Ultra ULightTM-JAK-1(Tyr1023) Peptide (200 nM)/ATP (40 μM) was added to the corresponding wells of a 384-well plate. Negative control: 2.5 μL/well 4×substrate/ATP mixture and 7.5 μL 1×kinase assay buffer in 384-well plate well. Positive control:
# μL/well 2×VEGFR-2 kinase solution was added to the 384-well plate, The final concentration of DMSO in the mixing system was 4%. After incubation at room temperature and dark for 60 min, 5 μL 4×stop solution was added to corresponding wells to react for 5 min and then 5 μL 4×detection mix was added to the corresponding wells of a 384-well plate. The mixture was centrifugally mixed and stayed for 60 min at room temperature for color development. The plate was read using a Envision plate reader. The inhibition rate (%) = (positive well reading-compound well reading)/(positive well reading-negative well reading)×100. The corresponding IC50 values were calculated using GraphPad Prism 5.0.
# EGFR = EGFR (Homo sapiens, UniProt P00533); assay: EGFR-TK inhibitory assay
# Sequence of EGFR (P00533 669-1210): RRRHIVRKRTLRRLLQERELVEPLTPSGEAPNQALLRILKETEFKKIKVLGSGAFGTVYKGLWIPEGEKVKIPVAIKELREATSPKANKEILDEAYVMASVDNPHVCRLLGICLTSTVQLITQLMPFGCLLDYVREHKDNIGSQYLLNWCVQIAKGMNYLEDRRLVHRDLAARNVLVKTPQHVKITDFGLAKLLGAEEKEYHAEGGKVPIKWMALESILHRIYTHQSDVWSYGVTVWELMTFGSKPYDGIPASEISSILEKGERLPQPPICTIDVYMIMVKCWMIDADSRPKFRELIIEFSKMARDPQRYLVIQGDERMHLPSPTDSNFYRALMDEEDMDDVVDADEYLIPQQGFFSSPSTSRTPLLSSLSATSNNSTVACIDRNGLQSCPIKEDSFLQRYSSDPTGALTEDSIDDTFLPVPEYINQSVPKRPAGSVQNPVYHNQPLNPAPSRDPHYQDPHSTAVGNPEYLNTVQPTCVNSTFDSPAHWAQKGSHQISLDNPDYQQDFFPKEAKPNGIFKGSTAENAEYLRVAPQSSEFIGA
# Experimental: Baculoviral expression vectors including pBlueBacHis2B and pFASTBacHTc were used
# 5ʹ upstream to the EGFR sequence comprised a sequence that encoded (His)6. Sf-9 cells were infected for 72h for protein expression. The pellets of Sf-9 cells were solubilized in a buffer containing sodium vanadate (100 μM), aprotinin (10 μg/mL), triton (1%), HEPES buffer(50mM), ammonium molybdate (10 μM), benzamidine HCl (16 μg/mL), NaCl (10 mM),leupeptin (10 μg/mL) and pepstatin (10 μg/mL) at 0°C for 20 min at pH 7.4, followed by centrifugation for 20 min. To eliminate the nonspecifically bound material, a Ni-NTA super flow packed column was used to pass through and wash the crude extract supernatant first with 10mM and then with 100 mM imidazole. Histidine-linked proteins were first eluted with 250 and then with 500 mM imidazole subsequent to dialysis against NaCl (50 mM), HEPES (20 mM), glycerol (10%) and 1 μg/mL each of aprotinin, leupeptin and pepstatin for 120 min. The purification was performed either at 4 °C or on ice. To record autophosphorylation level, EGFR kinase assay was carried out on the basis of DELFIA/Time-Resolved Fluorometry. The compounds were first
# dissolved in DMSO absolute, subsequent to dilution to appropriate concentration using HEPES
# (25 mM) at pH 7.4. Each compound (10 μL) was incubated with recombinant enzyme (10 μL, 5
# ng for EGFR, 1:80 dilution in 100 mM HEPES) for 10 min at 25 °C, subsequent to the addition of
# 5X buffer (10 μL, containing 2 mM MnCl2, 100 μM Na3VO4, 20 mM HEPES and 1 mM DTT)
# and ATP-MgCl2 (20 μL, containing 0.1 mM ATP and 50 mM MgCl2) and incubation for 1h. The
# negative and positive controls were included in each plate by the incubation of enzyme either with
# or without ATP-MgCl2. The liquid was removed after incubation and the plates were washed
# thrice using a wash buffer. The Europium-tagged antiphosphotyrosine antibody (75 μL, 400 ng)
# as §10, §11, §12
# calculated. The majority of signals detected by antiphosphotyrosine antibody were from EGFR because the enzyme preparation contained low impurities.
# Sequence of VEGFR-2 (P35968 20-1356): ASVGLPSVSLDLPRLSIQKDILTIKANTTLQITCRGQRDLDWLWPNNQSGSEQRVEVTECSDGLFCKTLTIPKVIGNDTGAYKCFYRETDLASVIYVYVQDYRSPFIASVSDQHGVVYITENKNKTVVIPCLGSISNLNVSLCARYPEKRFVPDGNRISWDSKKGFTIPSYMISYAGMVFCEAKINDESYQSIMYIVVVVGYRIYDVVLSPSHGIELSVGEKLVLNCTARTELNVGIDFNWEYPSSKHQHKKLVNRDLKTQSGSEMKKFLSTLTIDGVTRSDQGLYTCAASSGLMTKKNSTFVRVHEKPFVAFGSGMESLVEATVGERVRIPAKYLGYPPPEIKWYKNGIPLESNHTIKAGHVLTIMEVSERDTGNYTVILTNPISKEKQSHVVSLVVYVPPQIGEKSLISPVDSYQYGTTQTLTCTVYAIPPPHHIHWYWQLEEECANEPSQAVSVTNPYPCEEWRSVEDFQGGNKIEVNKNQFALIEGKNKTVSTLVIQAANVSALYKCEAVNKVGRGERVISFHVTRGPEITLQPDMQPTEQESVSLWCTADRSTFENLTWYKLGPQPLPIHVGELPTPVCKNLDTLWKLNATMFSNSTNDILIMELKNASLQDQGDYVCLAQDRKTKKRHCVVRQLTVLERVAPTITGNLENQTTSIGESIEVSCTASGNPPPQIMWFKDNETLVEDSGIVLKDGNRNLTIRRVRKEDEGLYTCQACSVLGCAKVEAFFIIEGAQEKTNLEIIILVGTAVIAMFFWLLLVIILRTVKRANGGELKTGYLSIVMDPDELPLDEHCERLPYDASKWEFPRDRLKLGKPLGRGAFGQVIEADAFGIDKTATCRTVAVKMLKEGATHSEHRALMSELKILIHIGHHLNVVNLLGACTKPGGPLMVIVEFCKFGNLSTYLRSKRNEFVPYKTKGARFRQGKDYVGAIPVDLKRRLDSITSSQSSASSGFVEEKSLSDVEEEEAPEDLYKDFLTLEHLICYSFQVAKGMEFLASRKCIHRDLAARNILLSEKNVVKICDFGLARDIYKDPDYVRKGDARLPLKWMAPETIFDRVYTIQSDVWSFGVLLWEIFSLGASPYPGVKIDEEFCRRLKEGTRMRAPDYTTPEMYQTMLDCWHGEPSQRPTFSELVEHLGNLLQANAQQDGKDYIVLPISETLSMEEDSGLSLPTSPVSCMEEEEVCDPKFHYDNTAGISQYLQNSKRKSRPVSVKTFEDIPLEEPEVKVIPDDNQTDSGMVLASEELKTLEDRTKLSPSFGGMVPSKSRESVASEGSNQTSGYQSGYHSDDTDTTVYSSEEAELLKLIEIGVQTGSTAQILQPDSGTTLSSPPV
SMILES,IC50 (Panc-1 cells) [nM],IC50 (A-549 cells) [nM],IC50 (HT-29 cells) [nM],IC50 (MCF-7 cells) [nM],MIC (B. subtilis) [µM],MIC (P. aeruginosa) [µM],MIC (S. aureus) [µM],GI50 [1] [nM],IC50 (E. coli DNA gyrase) [nM],"viability at 96 h, 50 µM (in vitro) [%]",MIC (E. coli) [µM],remaining activity at 1 µM (E. coli DNA gyrase) [%],also measured
"C#Cc1cccc(Nc2ncnc3cc(OCCOC)c(OCCOC)cc23)c1 [Erlotinib, reference compound]",30 ± 3,30 ± 3,30 ± 3,40 ± 3,,,,,,,,,
"Cc1nc(SCC(=O)c2cc3ccccc3oc2=O)sc1C(=O)/C=C/c1ccc(Cl)cc1 [Compound 11b, (E)-3-(2-((5-(3-(4-Chlorophenyl)acryloyl)-4-methylthiazol-2-yl)thio)acetyl)-2H-chromen-2-one]",70 ± 6,69 ± 6,72 ± 6,74 ± 6,0.018,0.045,0.023,71,182 ± 13,92,0.042,,"Fold less efficient than ciprofloxacin (MIC), B. subtilis (B. subtilis): 1.8 fold; Minimum inhibitory concentration (MIC), B. subtilis (B. subtilis): 18 ± 1 nM; Minimum inhibitory concentration (MIC), P. aeruginosa (P. aeruginosa): 45 ± 3 nM; Minimum inhibitory concentration (MIC), S. aureus (S. aureus): 23 ± 1 nM; Fold less effective than novobiocin (DNA gyrase IC50) (E. coli DNA gyrase): 1.1 fold; Minimum inhibitory concentration (MIC), E. coli (E. coli): 42 ± 3 nM"
"COc1ccc(/C=C/C(=O)c2sc(SCC(=O)c3cc4cc(Br)ccc4o3)nc2C)cc1 [Compound 12f, (E)-1-(2-((2-(5-Bromobenzofuran-2-yl)-2-oxoethyl)thio)-4-methylthiazol-5-yl)-3-(4-methoxyphenyl)prop-2-en-1-one]",56 ± 4,55 ± 4,56 ± 4,59 ± 4,,,,57,208 ± 15,92,,,Fold less potent than compound 11f (GI50) [1]: 2.1 fold; Fold less effective than compound 11b (DNA gyrase IC50) (E. coli DNA gyrase): approximately 1.2 fold
"Cc1nc(SCC(=O)c2cc3cc(Br)ccc3o2)sc1C(=O)/C=C/c1ccccc1 [Compound 12d, (E)-1-(2-((2-(5-Bromobenzofuran-2-yl)-2-oxoethyl)thio)-4-methylthiazol-5-yl)-3-phenylprop-2-en-1-one]",48 ± 3,45 ± 3,48 ± 3,50 ± 3,,,,48,,90,,65,Fold less effective than 11d (GI50) [1]: 1.6 fold
"Cc1nc(SCC(=O)c2cc3ccccc3oc2=O)sc1C(=O)/C=C/c1ccccc1 [Compound 11a, (E)-3-(2-((5-Cinnamoyl-4-methylthiazol-2-yl)thio)acetyl)-2H-chromen-2-one]",44 ± 3,40 ± 2,44 ± 3,48 ± 3,,,,44,,91,,72,IC50 (VEGFR-2): 5.2 ± 0.03 µM; IC50 (EGFR): 93 ± 4 nM
"Cc1nc(SCC(=O)c2cc3cc(Br)ccc3oc2=O)sc1C(=O)/C=C/c1ccccc1 [Compound 11d, (E)-6-Bromo-3-(2-((5-cinnamoyl-4-methylthiazol-2-yl)thio)acetyl)-2H-chromen-2-one]",30 ± 1,28 ± 1,30 ± 1,31 ± 1,,,,30,,95,,54,IC50 (VEGFR-2): 3.6 ± 0.02 µM; Fold less potent than compound 11f (GI50) [1]: 1.1 fold; IC50 (EGFR): 76 ± 3 nM
"O=C(O)c1cn(C2CC2)c2cc(N3CCNCC3)c(F)cc2c1=O [Ciprofloxacin, reference compound]",,,,,0.01,0.06 ± 0.004,0.03 ± 0.002,,,,0.06 ± 0.004,,"Minimum inhibitory concentration (MIC), B. subtilis (B. subtilis): 10 ± 1 nM"
"Cc1nc(SCC(=O)c2cc3ccccc3o2)sc1C(=O)/C=C/c1ccccc1 [Compound 12a, (E)-1-(2-((2-(Benzofuran-2-yl)-2-oxoethyl)thio)-4-methylthiazol-5-yl)-3-phenylprop-2-en-1-one]",66 ± 5,65 ± 5,66 ± 5,70 ± 5,,,,67,,93,,61,
"Cc1nc(SCC(=O)c2cc3ccccc3o2)sc1C(=O)/C=C/c1ccc(Cl)cc1 [Compound 12b, (E)-1-(2-((2-(Benzofuran-2-yl)-2-oxoethyl)thio)-4-methylthiazol-5-yl)-3-(4-chlorophenyl)prop-2-en-1-one]",64 ± 5,61 ± 5,65 ± 5,68 ± 5,0.029 ± 0.001,0.064 ± 0.004,0.034 ± 0.002,65,197 ± 12,90,0.062 ± 0.004,,
"Cc1nc(SCC(=O)c2cc3cc(Br)ccc3o2)sc1C(=O)/C=C/c1ccc(Cl)cc1 [Compound 12e, (E)-1-(2-((2-(5-bromobenzofuran-2-yl)-2-oxoethyl)thio)-4-methylthiazol-5-yl)-3-(4-chlorophenyl)prop-2-en-1-one]",62 ± 5,60 ± 5,62 ± 5,64 ± 5,,,,62,217 ± 15,94,,,Fold less efficient than 11e (GI50) [1]: 1.5 fold; Fold less effective than compound 11b (DNA gyrase IC50) (E. coli DNA gyrase): approximately 1.2 fold
